tested on: mouse, gerbils and marmosets; test: not given; settings: cited from earlier work

| Compound | efficacy in procedures sensitive to anti-depressants |
| --- | --- |
| CC(=O)NC1(c2ccccc2)CCN(CC[C@H](CN(C)C(=O)c2ccccc2)c2ccc(Cl)c(Cl)c2)CC1 [Saredutant] | Efficacy |

molecular target: T1, human NK2 receptor (Homo sapiens, UniProt P21452); test: [3H]SR48968 competition binding assay; settings: [3H]SR48968 displacement, membranes of CHO cells stably expressing recombinant human NK2 receptor; Ki from IC50 by Cheng-Prussoff
T1 construct: purchased Perkin Elmer biosignal Inc. 6110510
T1 sequence (P21452 1-398): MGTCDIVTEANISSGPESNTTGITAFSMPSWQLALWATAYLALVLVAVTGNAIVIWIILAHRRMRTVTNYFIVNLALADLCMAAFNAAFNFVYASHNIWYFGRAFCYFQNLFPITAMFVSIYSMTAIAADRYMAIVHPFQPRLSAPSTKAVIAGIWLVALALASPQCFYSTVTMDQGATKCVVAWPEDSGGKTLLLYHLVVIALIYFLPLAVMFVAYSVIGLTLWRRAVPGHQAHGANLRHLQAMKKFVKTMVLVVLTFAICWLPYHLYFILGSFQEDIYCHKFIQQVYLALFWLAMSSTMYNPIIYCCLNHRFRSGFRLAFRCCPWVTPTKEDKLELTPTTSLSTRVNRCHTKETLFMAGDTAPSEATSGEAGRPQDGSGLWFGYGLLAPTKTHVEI
Outline: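 Membranes from CHO cells stably expressing recombinant human NK2 were incubated 75 min at RT with [3H]SR48968 at its KD and 10 compound concentrations (0.0003–10 μM) in Tris-HCl pH 7.4, MnCl2, chymostatin, BSA. Filter-bound radioactivity was counted; Hill-fitted IC50 converted to Ki via Cheng-Prusoff.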

| Compound | Ki |
| --- | --- |
| CCc1cc(C(=O)N(C)[C@H]2CN(C(=O)C3CCN(C(=O)C4(C)CC4)CC3)C[C@@H]2c2ccc(Cl)c(Cl)c2)ccc1Cl (racemic) [Example 174, 4-Chloro-N-{(3RS,4SR)-4-(3,4-dichloro-phenyl)-1-[1-(1-methyl-cyclopropanecarbonyl)-piperidine-4-carbonyl]-pyrrolidin-3-yl}-3-ethyl-N-methyl-benzamide] | 0.9 nM |
| COc1ccc(C(=O)N(C)[C@@H]2CN(C(=O)N3CCN(S(C)(=O)=O)[C@@H](C)C3)C[C@H]2c2ccc(Cl)c(Cl)c2)cc1C(F)(F)F [Example 42] | 1.4 nM |
| COc1ccc(C(=O)N(C)[C@@H]2CN(C(=O)N3CCN(S(C)(=O)=O)[C@H](C)C3)C[C@H]2c2ccc(Cl)c(Cl)c2)cc1C(F)(F)F [Example 43] | 2.23 nM |
| COc1ccc(C(=O)N(C)[C@@H]2CN(C(=O)C3CCN(C(=O)C4(C)CC4)CC3)C[C@H]2c2ccc(Cl)cc2)cc1C(F)(F)F [Example 94, N-{(3S,4R)-4-(4-Chloro-phenyl)-1-[1-(1-methyl-cyclopropanecarbonyl)-piperidine-4-carbonyl]-pyrrolidin-3-yl}-4-methoxy-N-methyl-3-trifluoromethyl-benzamide] | 0.6 nM |
| COc1ccc(C(=O)N(C)[C@@H]2CN(C(=O)C3CCN(C(=O)C4(C)CC4)CC3)C[C@H]2c2ccc(Cl)c(Cl)c2)cc1C(F)(F)F [Example 107, N-{(3S,4R)-4-(3,4-Dichloro-phenyl)-1-[1-(1-methyl-cyclopropanecarbonyl)-piperidine-4-carbonyl]-pyrrolidin-3-yl}-4-methoxy-N-methyl-3-trifluoromethyl-benzamide] | 0.6 nM |
| CN(C(=O)Cc1ccc(F)cc1)[C@H]1CN(C(=O)C2CCN(C(=O)C3(C)CC3)CC2)C[C@@H]1c1ccc(Cl)c(Cl)c1 [Example 118, N-{(3R,4S)-4-(3,4-Dichloro-phenyl)-1-[1-(1-methyl-cyclopropanecarbonyl)-piperidine-4-carbonyl]-pyrrolidin-3-yl}-2-(4-fluoro-phenyl)-N-methyl-acetamide] | 32.4 nM |
| CN(C(=O)Cc1ccc(F)cc1)[C@@H]1CN(C(=O)C2CCN(C(=O)C3(C)CC3)CC2)C[C@H]1c1ccc(Cl)c(Cl)c1 [Example 119, N-{(3S,4R)-4-(3,4-Dichloro-phenyl)-1-[1-(1-methyl-cyclopropanecarbonyl)-piperidine-4-carbonyl]-pyrrolidin-3-yl}-2-(4-fluoro-phenyl)-N-methyl-acetamide] | 11.3 nM |
| COc1ccc(C(=O)N(C)[C@H]2CN(C(=O)C3CCN(C(=O)C4(C)CC4)CC3)C[C@@H]2c2ccc(Cl)cc2C)cc1C(F)(F)F [Example 123, N-{(3R,4S)-4-(4-Chloro-2-methyl-phenyl)-1-[1-(1-methyl-cyclopropanecarbonyl)-piperidine-4-carbonyl]-pyrrolidin-3-yl}-4-methoxy-N-methyl-3-trifluoromethyl-benzamide] | 38 nM |
| CN(C(=O)c1ccc(Cl)c(C(F)(F)F)c1)[C@H]1CN(C(=O)C2CCN(CC3CC3)CC2)C[C@@H]1c1ccc(Cl)cc1 [Example 153, 4-Chloro-N-[(3R,4S)-4-(4-chloro-phenyl)-1-(1-cyclopropylmethyl-piperidine-4-carbonyl)-pyrrolidin-3-yl]-N-methyl-3-trifluoromethyl-benzamide] | 52.7 nM |
| CN(C(=O)c1ccc(Cl)c(C(F)(F)F)c1)[C@@H]1CN(C(=O)C2CCN(CC3CC3)CC2)C[C@H]1c1ccc(Cl)cc1 [Example 154, 4-Chloro-N-[(3S,4R)-4-(4-chloro-phenyl)-1-(1-cyclopropylmethyl-piperidine-4-carbonyl)-pyrrolidin-3-yl]-N-methyl-3-trifluoromethyl-benzamide] | 0.5 nM |
| CN(C(=O)c1ccc(Cl)c(C(F)(F)F)c1)[C@@H]1CN(C(=O)C2CCN(C(=O)C3(C)CC3)CC2)C[C@H]1c1ccc(Cl)cc1 [Example 156, 4-Chloro-N-{(3S,4R)-4-(4-chloro-phenyl)-1-[1-(1-methyl-cyclopropanecarbonyl)-piperidine-4-carbonyl]-pyrrolidin-3-yl}-N-methyl-3-trifluoromethyl-benzamide] | 0.8 nM |
| CN(C(=O)c1ccc(Cl)c(C(F)(F)F)c1)[C@@H]1CN(C(=O)C2CCN(CC3CC3)CC2)C[C@H]1c1ccc(Cl)c(Cl)c1 [Example 167, 4-Chloro-N-[(3S,4R)-1-(1-cyclopropylmethyl-piperidine-4-carbonyl)-4-(3,4-dichloro-phenyl)-pyrrolidin-3-yl]-N-methyl-3-trifluoromethyl-benzamide] | 93.6 nM |
| CN(C(=O)c1ccc(Cl)c(C(F)(F)F)c1)[C@H]1CN(C(=O)C2CCN(CC3CC3)CC2)C[C@@H]1c1ccc(Cl)c(Cl)c1 [Example 168, 4-Chloro-N-[(3R,4S)-1-(1-cyclopropylmethyl-piperidine-4-carbonyl)-4-(3,4-dichloro-phenyl)-pyrrolidin-3-yl]-N-methyl-3-trifluoromethyl-benzamide] | 0.4 nM |
| CN(C(=O)c1cc(C(F)(F)F)ccn1)[C@@H]1CN(C(=O)C2CCN(C(=O)C3(C)CC3)CC2)C[C@H]1c1ccc(Cl)c(Cl)c1 [Example 170, 4-Trifluoromethyl-pyridine-2-carboxylic acid {(3S,4R)-4-(3,4-dichloro-phenyl)-1-[1-(1-methyl-cyclopropanecarbonyl)-piperidine-4-carbonyl]-pyrrolidin-3-yl}-methyl-amide] | 0.4 nM |
| CN(C(=O)c1ccc(Cl)c(C2CC2)c1)[C@H]1CN(C(=O)C2CCN(C(=O)C3(C)CC3)CC2)C[C@@H]1c1ccc(Cl)c(Cl)c1 [Example 175, 4-Chloro-3-cyclopropyl-N-{(3R,4S)-4-(3,4-dichloro-phenyl)-1-[1-(1-methyl-cyclopropanecarbonyl)-piperidine-4-carbonyl]-pyrrolidin-3-yl}-N-methyl-benzamide] | 42 nM |
| CN(C(=O)c1ccc(Cl)c(C2CC2)c1)[C@@H]1CN(C(=O)C2CCN(C(=O)C3(C)CC3)CC2)C[C@H]1c1ccc(Cl)c(Cl)c1 [Example 176, 4-Chloro-3-cyclopropyl-N-{(3S,4R)-4-(3,4-dichloro-phenyl)-1-[1-(1-methyl-cyclopropanecarbonyl)-piperidine-4-carbonyl]-pyrrolidin-3-yl}-N-methyl-benzamide] | 0.6 nM |

tested on: rodents; test: not given; settings: elevated plus maze and light/dark test in rodents; cited from earlier work

| Compound | efficacy in exploration based procedures sensitive to anxiolytics |
| --- | --- |
| CC(=O)NC1(c2ccccc2)CCN(CC[C@H](CN(C)C(=O)c2ccccc2)c2ccc(Cl)c(Cl)c2)CC1 [Saredutant] | effective |

— US8404679B2, “Pyrrolidine derivatives as NK2 receptor antagonists” (Hoffmann-La Roche Inc., priority 2008, dated 2013)
